The results in this text go back to patent US20220202799A1, “PHARMACEUTICAL FORMULATIONS CONTAINING P2Y14 ANTAGONISTS” (priority 2019, published 2022).

Several values for one entry are separate records, joined by “and”; a condition that tells them apart may be missing. Equal values may be shown once.

The data set in a line: Effect of pH on solubility of PPTN in aqueous medium. Type of data set: physicochemical. As to the method: The effect of pH on the solubility of PPTN in an aqueous medium was analyzed. Solutions of PPTN in either water or phosphate buffer at various pH values were incubated with agitation for 24-48 hours at room temperature then filtered to remove precipitates, and the PPTN concentration of the filtered solution was analyzed.

For `Cl.O=C(O)c1cc(-c2ccc(C3CCNCC3)cc2)c2ccc(-c3ccc(C(F)(F)F)cc3)cc2c1` [KB-1801.HCl], the “[KB-1801.HCl] by HPLC Analysis (solubility)” value is 0.0008 mg/mL and 1.6 μM (pH 1.9, 10 mM phosphate buffer, 24-48 h, ~22° C.); 0.0255 mg/mL and 50 μM (pH 2.8, 10 mM phosphate buffer, 24-48 h, ~22° C.); ~0.1 mg/mL and 195 μM (pH 4.8, 0 mM buffer (DIW), >24 h, ~25° C. (from initial sonication)); 0.0001 mg/mL and 0.2 μM (pH 6.6, 10 mM phosphate buffer, 24-48 h, ~22° C.); 0.0001 mg/mL and 0.2 μM (pH 8.2, 10 mM phosphate buffer, 24-48 h, ~22° C.).
